Common to all, as to format: biochemical
One test has as its target MMP-13 (Homo sapiens, UniProt P45452). As to the kind of experiment: MMP-13 inhibition (thiopeptide or fluorescent peptide substrate assay). As to conditions: for inhibition at 1 µM: read-out: MMP-13 % inhibition, footnote: 1µM.
The target in the next test is TACE (Homo sapiens, UniProt P78536). Nature of the test: TACE inhibition (fluorescent peptidyl substrate). As to conditions: for inhibition at 1 µM: at 1µM concentration.
A further test concerns the target MMP-9 (Homo sapiens, UniProt P14780). As to the kind of experiment: MMP-9 inhibition (thiopeptide or fluorescent peptide substrate assay). As to conditions: for IC50: read-out: MMP-9 IC50; for inhibition at 1 µM: read-out: MMP-9 % inhibition, footnote: 1µM.
Another test addresses T1, MMP-1 (Homo sapiens, UniProt P03956).
T1 sequence (P03956 100-469): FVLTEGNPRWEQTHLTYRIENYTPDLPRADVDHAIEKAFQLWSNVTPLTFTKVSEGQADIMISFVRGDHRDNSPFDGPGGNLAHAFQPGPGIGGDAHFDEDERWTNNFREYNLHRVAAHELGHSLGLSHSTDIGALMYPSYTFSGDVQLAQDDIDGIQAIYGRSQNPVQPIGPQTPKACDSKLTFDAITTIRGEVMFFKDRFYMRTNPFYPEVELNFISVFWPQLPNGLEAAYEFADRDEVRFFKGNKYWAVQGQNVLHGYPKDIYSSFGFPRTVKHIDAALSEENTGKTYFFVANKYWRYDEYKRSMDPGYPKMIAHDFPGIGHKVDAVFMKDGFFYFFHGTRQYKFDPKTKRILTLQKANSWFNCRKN
As to the kind of experiment: MMP-1 inhibition (thiopeptide or fluorescent peptide substrate assay). Conditions: for IC50: read-out: MMP-1 IC50; for inhibition at 1 µM: read-out: MMP-1 % inhibition, footnote: 1µM.

The structures appear in SMILES notation. Where two headings read alike, the source gives them in different places.

Sequence of MMP-9 (P14780 94-707): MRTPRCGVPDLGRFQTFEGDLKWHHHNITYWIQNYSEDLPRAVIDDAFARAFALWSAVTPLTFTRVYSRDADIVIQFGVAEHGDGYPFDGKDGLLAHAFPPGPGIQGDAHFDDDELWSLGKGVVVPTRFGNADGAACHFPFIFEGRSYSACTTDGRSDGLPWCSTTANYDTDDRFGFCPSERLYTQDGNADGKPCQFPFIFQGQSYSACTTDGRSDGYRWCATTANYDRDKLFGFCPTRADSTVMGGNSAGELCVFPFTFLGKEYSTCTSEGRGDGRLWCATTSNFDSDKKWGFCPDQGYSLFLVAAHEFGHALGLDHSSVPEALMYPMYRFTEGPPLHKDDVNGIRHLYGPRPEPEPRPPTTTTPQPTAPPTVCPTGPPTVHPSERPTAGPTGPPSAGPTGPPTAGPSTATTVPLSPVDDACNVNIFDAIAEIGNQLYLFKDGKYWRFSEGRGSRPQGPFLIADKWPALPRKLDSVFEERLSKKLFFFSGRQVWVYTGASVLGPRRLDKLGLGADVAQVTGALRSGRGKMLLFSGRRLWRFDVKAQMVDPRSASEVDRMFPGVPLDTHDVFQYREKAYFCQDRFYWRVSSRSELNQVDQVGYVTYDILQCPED
Sequence of TACE (P78536 215-824): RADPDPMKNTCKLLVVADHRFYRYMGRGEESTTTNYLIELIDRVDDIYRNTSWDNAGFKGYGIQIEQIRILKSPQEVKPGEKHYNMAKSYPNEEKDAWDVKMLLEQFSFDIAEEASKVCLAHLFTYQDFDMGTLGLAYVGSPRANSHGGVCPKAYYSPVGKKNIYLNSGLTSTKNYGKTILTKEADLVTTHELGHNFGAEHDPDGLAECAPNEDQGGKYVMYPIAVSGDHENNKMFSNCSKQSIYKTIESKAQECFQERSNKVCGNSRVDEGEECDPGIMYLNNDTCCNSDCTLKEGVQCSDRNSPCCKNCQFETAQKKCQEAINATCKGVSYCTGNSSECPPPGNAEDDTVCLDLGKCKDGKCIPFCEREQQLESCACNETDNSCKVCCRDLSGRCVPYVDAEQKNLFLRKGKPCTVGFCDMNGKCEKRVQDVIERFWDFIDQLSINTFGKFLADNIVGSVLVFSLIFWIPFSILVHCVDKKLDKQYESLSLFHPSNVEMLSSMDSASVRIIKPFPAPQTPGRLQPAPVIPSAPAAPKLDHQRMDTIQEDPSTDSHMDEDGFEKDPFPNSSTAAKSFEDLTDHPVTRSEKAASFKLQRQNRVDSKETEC
Procedure for MMP-9: The enzyme activity is measured by the rate of the color increase. The thiopeptide substrate is made up fresh as a 20 mM stock in 100% DMSO and the DTNB is dissolved in 100% DMSO as a 100 mM stock and stored in the dark at room temperature. Both the substrate and DTNB are diluted together to 1 mM with substrate buffer (50 mM HEPES pH 7.5, 5 mM CaCl2) before use. […] Alternatively, a fluorescent peptide substrate is used. In this assay, the peptide substrate contains a fluorescent group and a quenching group. Upon cleavage of the substrate by an MMP, the fluorescence that is generated is quantitated on the fluorescence plate reader. […] The substrate is dissolved in methanol and stored frozen in 1 mM aliquots. For the assay, substrate and enzymes are diluted in HCBC buffer to the desired concentrations. Compounds are added to the 96 well plate containing enzyme and the reaction is started by the addition of substrate. […] For either the thiopeptide or fluorescent peptide assays, the slope of the line is calculated and represents the reaction rate. […] The mean (x±sem) of the control rate is calculated and compared for statistical significance (p<0.05) with drug-treated rates using Dunnett's multiple comparison test.

As to `COc1ccc(S(=O)(=O)N(Cc2cccnc2)c2c(C)cc(-c3ccco3)cc2C(=O)NO)cc1` [Example 255, 5-Furan-2-yl-N-hydroxy-2-[(4-methoxy-benzenesulfonyl)-pyridin-3-ylmethyl-amino]-3-methyl-benzamide], the IC50 – broadly, the concentration that inhibits the measured activity by half – at MMP-13 (read-out: MMP-13 IC50) was determined as 3.2 nM; at TACE (read-out: TACE IC50), 65 nM; on MMP-9, 7.1 nM; at MMP-1, 48 nM.
Consider `COc1ccc(S(=O)(=O)N(Cc2cccnc2)c2c(C)cc(-c3sccc3C=NO)cc2C(=O)NO)cc1` [Example 258, N-Hydroxy-5-[3-(hydroxyimino-methyl)-thiophen-2-yl]-2-[(4-methoxy-benzenesulfonyl)-pyridin-3-ylmethyl-amino]-3-methyl-benzamide], for which the half-maximal inhibitory concentration (IC50) on MMP-13 (read-out: MMP-13 IC50) is 7 nM; at TACE (read-out: TACE IC50), 110 nM; at MMP-9, 8 nM; on MMP-1 it was 169 nM.
Turning to `COc1ccc(S(=O)(=O)N(Cc2cccnc2)c2c(C)cc(-c3ccc(Cl)s3)cc2C(=O)NO)cc1` [Example 261, 5-(5-Chloro-thiophen-2-yl)-N-hydroxy-2-[(4-methoxy-benzenesulfonyl)-pyridin-3-ylmethyl-amino]-3-methyl-benzamide], the IC50 on MMP-13 (read-out: MMP-13 IC50) is 2.8 nM; on TACE (read-out: TACE IC50) it was 54 nM; on MMP-9 it was 1.3 nM; on MMP-1 it was 247 nM.
For `COc1ccc(S(=O)(=O)N(Cc2cccnc2)c2c(C)cc(-c3ccc(C(C)=O)s3)cc2C(=O)NO)cc1` [Example 264, 5-(5-Acetyl-thiophen-2-yl)-N-hydroxy-2-[(4-methoxy-benzenesulfonyl)-pyridin-3-ylmethyl-amino]-3-methyl-benzamide], in that order: 6.4 nM, 77 nM, 3.7 nM and 159 nM.
For `C=Cc1cc(C)c(N(Cc2ccccc2)S(=O)(=O)c2ccc(OC)cc2)c(C(=O)NO)c1` [Example 267, 2-[Benzyl-(4-methoxy-benzenesulfonyl)-amino]-N-hydroxy-3-methyl-5-vinyl-benzamide], in that order: 13 nM, 136 nM, 3 nM and 59 nM.
For `CCc1cc(C)c(N(Cc2cccnc2)S(=O)(=O)c2ccc(OC)cc2)c(C(=O)NO)c1` [Example 277, 5-Ethyl-N-hydroxy-2-[(4-methoxy-benzenesulfonyl)-pyridin-3-ylmethyl-amino]-3-methyl-benzamide], in that order: 4 nM, 34 nM, 4 nM and 56 nM.
For the compound `COc1ccc(S(=O)(=O)N(Cc2cccnc2)c2c(C)cc(-c3cccnc3)cc2C(=O)NO)cc1` [Example 285, N-Hydroxy-2-[(4-methoxy-benzenesulfonyl)-pyridin-3-ylmethyl-amino]-3-methyl-5-pyridin-3-yl-benzamide], the IC50 on MMP-13 (read-out: MMP-13 IC50) was found to be 9.8 nM; at TACE (read-out: TACE IC50) it was 61 nM; at MMP-9, 6 nM; at MMP-1, 312 nM.
Consider `COc1ccc(S(=O)(=O)N(Cc2ccccc2)c2c(C)ccc(C)c2C(=O)NO)cc1` [Example 292, 2-[Benzyl-(4-methoxy-benzenesulfonyl)-amino]-N-hydroxy-3,6-dimethyl-benzamide], for which the figures for the IC50 at MMP-13 (read-out: MMP-13 IC50), at MMP-9 and on MMP-1 were 29 nM, 8 nM and 184 nM, respectively. Moreover, the inhibition (in general, the drop in the measured response relative to a control, in per cent) at 1 µM against TACE came out at 7%.
The matching figures for `COc1ccc(S(=O)(=O)N(Cc2cccnc2)c2c(C)ccc(C)c2C(=O)NO)cc1` [Example 297, N-Hydroxy-2-[(4-methoxy-benzenesulfonyl)-pyridin-3-ylmethyl-amino]-3,6-dimethyl-benzamide]: 14 nM, 9 nM, 297 nM and 58%.
In the case of `COc1ccc(S(=O)(=O)N(Cc2cccnc2)c2c(C)cc(-c3cc(-c4ccc(C)o4)no3)cc2C(=O)NO)cc1` [Example 301, N-Hydroxy-2-[(4-methoxy-benzenesulfonyl)-pyridin-3-ylmethyl-amino]-3-methyl-5-[3-(5-methyl-furan-2-yl)-isoxazol-5-yl]-benzamide], the IC50 was 8.7 nM at MMP-13 (read-out: MMP-13 IC50), 1480 nM on TACE (read-out: TACE IC50), 6.9 nM at MMP-9 and 211 nM at MMP-1.
As to `Cc1cc(Br)cc(C(=O)NO)c1N(Cc1ccccc1)S(=O)(=O)c1ccc(OCc2ccccc2)cc1` [Example 308], the inhibition at 1 µM turned out to be 36% at MMP-13, 45% at MMP-9 and 10% at MMP-1. Moreover, the IC50 on TACE (read-out: TACE IC50) is 285 nM.
In the case of `COc1ccc(S(=O)(=O)N(C)c2c(CN3CCOCC3)cccc2C(=O)NO)cc1` [Example 309, N-Hydroxy-2-[(4-methoxy-benzenesulfonyl)-methyl-amino]-3-morpholin-4-ylmethyl-benzamide], the IC50 amounted to 14 nM against MMP-13, 174 nM against TACE, 5 nM at MMP-9 and 608 nM on MMP-1.
Regarding `COc1ccc(S(=O)(=O)N(C)c2c(CN3CCCC3)cccc2C(=O)NO)cc1` [Example 310, N-Hydroxy-2-[(4-methoxy-benzenesulfonyl)-methyl-amino]-3-pyrrolidin-1-ylmethyl-benzamide], the IC50 on MMP-13 (read-out: MMP-13 IC50) was found to be 101 nM; on TACE (read-out: TACE IC50) it was 154 nM; at MMP-9 it was 21 nM; at MMP-1, 4800 nM.
Consider `COc1ccc(S(=O)(=O)N(C)c2c(Cn3ccnc3)cccc2C(=O)NO)cc1` [Example 311, N-Hydroxy-3-imidazol-1-ylmethyl-2-[(4-methoxy-benzenesulfonyl)-methyl-amino]-benzamide], for which the IC50 stood at 43 nM against MMP-13, 157 nM on TACE, 10 nM at MMP-9 and 781 nM at MMP-1.
For the compound `COc1ccc(S(=O)(=O)N(C)c2c(CN3CCCC3)cc(Br)cc2C(=O)NO)cc1` [Example 314, 5-Bromo-N-hydroxy-2-[(4-methoxy-benzenesulfonyl)-methylamino]-3-pyrrolidin-1-ylmethyl-benzamide], the IC50 at MMP-13 (read-out: MMP-13 IC50) was 13 nM; on TACE (read-out: TACE IC50) it was 27 nM; on MMP-9 it was 8.4 nM; at MMP-1, 954 nM.
For the compound `COc1ccc(S(=O)(=O)N(Cc2cccnc2)c2c(CN3CCCC3)cccc2C(=O)NO)cc1` [Example 320, N-Hydroxy-2-[(4-methoxy-benzenesulfonyl)-pyridin-3-ylmethyl-amino]-3-pyrrolidin-1-ylmethyl-benzamide], the IC50 at MMP-13 (read-out: MMP-13 IC50) was determined as 150 nM; on TACE (read-out: TACE IC50), 142 nM; on MMP-9, 46 nM; at MMP-1, 2190 nM.
Consider `CCCCCCCCN(c1c(CN2CCN(C)CC2)cccc1C(=O)NO)S(=O)(=O)c1ccc(OC)cc1` [Example 325, N-Hydroxy-2-[(4-methoxy-benzenesulfonyl)-octyl-amino]-3-(4-methyl-piperazin-1-ylmethyl)-benzamide], for which the inhibition at 1 µM at MMP-13 turned out to be 60%; at TACE it was 47%; at MMP-9, 49%; at MMP-1, 15%. The figures for the IC50 on MMP-13 (read-out: MMP-13 IC50), on TACE (read-out: TACE IC50) and at MMP-9 were 1.9 nM, 1640 nM and 2.4 nM, respectively.
On to `COc1ccc(S(=O)(=O)N(Cc2ccsc2)c2c(CN3CCN(C)CC3)cccc2C(=O)NO)cc1` [Example 328, N-Hydroxy-2-[(4-methoxy-benzenesulfonyl)-thiophen-3-ylmethyl-amino]-3-(4-methyl-piperazin-1-ylmethyl)-benzamide], for which the IC50 on MMP-13 (read-out: MMP-13 IC50) was found to be 13 nM; at TACE (read-out: TACE IC50), 263 nM; at MMP-9, 4.9 nM; at MMP-1, 326 nM.
The matching figures for `COc1ccc(S(=O)(=O)N(Cc2ccccc2)c2c(CN3CCN(C)CC3)cccc2C(=O)NO)cc1` [Example 329, N-Hydroxy-2-[[(4-methoxyphenyl)sulfonyl](phenylmethyl)-amino]-3-[(4-methyl-1-piperazinyl)methyl]benzamide]: 23 nM, 173 nM, 6.1 nM and 319 nM.
For the compound `COc1ccc(S(=O)(=O)N(Cc2cccnc2)c2c(COC3CCCCO3)cccc2C(=O)NO)cc1` (stereo not shown) [Example 339, N-Hydroxy-2-[(4-methoxy-benzenesulfonyl)-pyridin-3-ylmethyl-amino]-3-(tetrahydro-pyran-2-yloxymethyl)-benzamide], the IC50 at MMP-13 (read-out: MMP-13 IC50) came out at 5.7 nM; at TACE (read-out: TACE IC50), 564 nM; at MMP-9, 5.2 nM; on MMP-1 it was 216 nM.
The matching figures for `COc1ccc(S(=O)(=O)N(Cc2cccnc2)c2c(CO)cccc2C(=O)NO)cc1` [Example 340, N-Hydroxy-3-hydroxymethyl-2-[(4-methoxy-benzenesulfonyl)-pyridin-3-ylmethyl-amino]-benzamide]: 30 nM, 110 nM, 11 nM and 522 nM.
`COc1ccc(S(=O)(=O)N(Cc2ccccc2)c2c(OCCO[Si](C)(C)C(C)(C)C)cccc2C(=O)NO)cc1` [Example 344, 2-[Benzyl-(4-methoxy-benzenesulfonyl)-amino]-3-[2-(tert-butyl-dimethyl-silanyloxy)-ethoxy]-N-hydroxy-benzamide]: the IC50 was 320 nM at MMP-13 (read-out: MMP-13 IC50), 529 nM at TACE (read-out: TACE IC50), 69 nM at MMP-9 and 1170 nM on MMP-1.

These data come from patent EP0938471B1, “THE PREPARATION AND USE OF ORTHO-SULFONAMIDO ARYL HYDROXAMIC ACIDS AS MATRIX METALLOPROTEINASE AND TACE INHIBITORS” (priority 1996, dated 1998).
